From patent publication US20220249591A1, “COMPOSITION FOR THE TREATMENT OF EMOTIONAL DISORDERS” (priority 2019, published 2022)
Marks after values point to notes of the source that are not given here.

Tests used:
Type in all cases: in vivo
[1] = tested on: 6-month-old stressed mice (UCMS); assay: Open field test (anxiety behavior) in UCMS-stressed mice; conditions: induced model (UCMS) mice, n = 12, after 21 days of daily oral gastric intubation (glutamine 24 mg, curcuma extract 1.2 mg, L. rhamnosus GG 0.120 mg per mouse); clomipramine 10 mg/kg intraperitoneal; 5 min session
Procedure: The solutions were administered orally by gastric intubation to mice (1 tube-feed per day).
The preparation of the solutions is performed extemporaneously and the administration is performed in the morning. During the behavioral sessions, the solutions are administered one hour before the start of the session. The gastric incubation always takes place in a different room from the one in which the behavioral test is performed.
In order to evaluate the results obtained with the solutions, one group of mice received a parenteral administration of a tricyclic antidepressant (clomipramine). The mice were divided into independent groups according to the following treatments:
For each group, the administration of the various solutions lasts 21 consecutive days (3 weeks). The behavioral tests are performed 4 weeks after induction of the model (“elevated plus maze” and “tail suspension”) and 3 weeks after the daily intubations (“open field” and “forced swim”).
The open field test is a circular arena (ø 1 m) surrounded by an opaque wall 25 cm tall placed in a room with uniform lighting of 70 lux. The mice are placed facing the wall at the periphery of the arena and can explore freely for 5 minutes. The area of the open field is practically divided into a peripheral zone (12 cm wide) and a central zone (the remaining area of the arena). The time (in seconds) spent in the central zone is automatically noted by videotracking. The more time a mouse spends in the central zone, the less anxious it is.
The anxiety behavior was evaluated by means of the open field test. The mean time spent by the mice at the center of the apparatus is measured.

[2] = tested on: 6-month-old stressed mice (UCMS); assay: Forced swim test (Porsolt; depressive behavior) in UCMS-stressed mice
Procedure: The solutions were administered orally by gastric intubation to mice (1 tube-feed per day). The preparation of the solutions is performed extemporaneously and the administration is performed in the morning. During the behavioral sessions, the solutions are administered one hour before the start of the session. The gastric incubation always takes place in a different room from the one in which the behavioral test is performed. […] The mice were divided into independent groups according to the following treatments: For each group, the administration of the various solutions lasts 21 consecutive days (3 weeks). The behavioral tests are performed 4 weeks after induction of the model (“elevated plus maze” and “tail suspension”) and 3 weeks after the daily intubations (“open field” and “forced swim”). The forced swim test (Porsolt) is a test commonly used for evaluating depressive behavior in mice. This test is based on behavioral despair. […] An animal displaying depressive behaviour will spend more time immobile than the non-depressive control mouse. After the session, the animal is dried and placed under warm light. Three parameters for evaluating the depressive behaviour are noted: the time spent swimming, the time spent climbing and the time spent immobile for each animal and also their respective percentage.

[3] = tested on: intestinal microbiota of the stressed mice; assay: Composition of the fecal microbiota by analysis of the 16S rRNA; conditions: before vs after treatment, relative to placebo group
Procedure: The composition of the microbiota of the animals was analyzed in order to determine the influence of the formula on the bacterial composition of the fecal microbiota of the stressed mice and to compare it with the influence of the drug or of the placebo.
The animals' feces were sampled in order for a DNA extraction to be performed (Zymo Research based kits). The V3-V4 regions of the 16S rRNA gene are amplified and sequencing is performed on an ILLUMINA MiSeq system using the 2*250 bp mode. Sequence analysis is performed after correction using SPAdes ([…]) and regrouping is performed using PEAR (Zhang J. et al. Bioinformatics 2014; 30(5): 614-20). The OTUs (Operational Taxonomic Units) are identified with the Vsearch tool (Rognes T. et al. Peer J., 2016; 4: e2584), the taxonomic classification arising therefrom was performed by means of the RDP (Ribosomal Database Project) database.
The majority of the diversity studies based on 16S rDNA define the OTUs as being sets of sequences having at least 97% identity with each other. The OTUs are, in point of fact, the unit for measuring the specific richness in microbial ecology.
The statistical analyses were performed using the R program (Team RDC. R: A Language and Environment for Statistical Computing. 2012, Austria: R Foundation for Statistical Computing) and various packets (Ade4, Vegan). […]

[4] = induced model (UCMS) mice, n = 12, after 21 days of daily oral gastric intubation, clomipramine 10 mg/kg intraperitoneal, 6 min session

Compound	Open field test Mean (seconds): time spent in the central zone [1] [s]	Forced swim test Climbing (dry) [2, 4]	Forced swim test Immobility (dry) [2, 4]	Forced swim test Swimming (dry) [2, 4] [s]	Forced swim test swimming time, effect in words ([2]; compared with the other groups, 21 days treatment)	Beta-diversity of the intestinal microbiota (PCoA), change of microbiotal profile, in words [3]
NC(=O)CC[C@H](N)C(=O)O [Glutamine]	42.9	–	–	–	–	–
Lactobacillus rhamnosus GG	41.6	113.5* s	106.8* s	139.8	–	–
CN(C)CCCN1c2ccccc2CCc2ccc(Cl)cc21 [Clomipramine, reference compound]	56.8	–	–	–	spending more time swimming when compared with the other groups	would stabilize the dysbiosis induced by the 4 weeks of stress relative to the placebo group
